Measured values from US20050019372A1, “Modified-fat nutritional products useful preventing or treating obesity” (priority 2001, published 2005).
Where two headings read alike, the source gives them in different places.

Columns and labels:
3T3-L1 adipocytes [1] = test: Partitioning of [1-14C]FFA between CO2 production and TG incorporation; assay type: cell-based; conditions: for Exogenous fatty acid converted into CO2 / Exogenous fatty acid converted into TG: 60 min, 1 mM fatty acid in 0.2 mM BSA, means ± S.E.M., n=3
Procedure: Partitioning of [1-^14C]FFA between CO2production7 and TG incorporation. 3T3-L1 cells were prepared in T25 culture flasks. […] The incubation was terminated after 60 min. ^14CO2 released from fatty acid oxidation was collected and quantified using a published protocol. The cellular lipids were extracted and separated by TLC. The TG fraction was scraped off and dissolved in Ecosin-A solution for scintillation counting. […] Cellular DNA was measured in parallel cultures.

3T3-L1 fat cells = test: Basal lipolysis and turnover of esterified fatty acids (glycerol release, NMR, GLC); assay type: cell-based; conditions: for 8:0 acyl chains in cellular TG: means ± S.E.M.; for [1-13C]fatty acid remaining esterified in TG: NMR, ±S.E.M.
Procedure: Measurement of basal lipolysis. […] Control cultures were terminated at this time, and cells were homogenated for TG and DNA analysis. After aliquots were taken for these analyses, cellular lipids were extracted for NMR and GLC analysis. Parallel cultures were washed three times with PBS solution and incubated with serum-free DMEM containing 1% BSA, conditions that favour basal lipolysis. At the end of the incubation, media were aspirated and assayed for glycerol (Sigma procedure no. 337A [27]), and the cells were harvested for analysis as described above.
Quantification of ^13C label incorporation into cellular TG from the NMR peak intensity. The ^13C-NMR spectra were obtained at 125 MHz on a Bruker DMX-500 spectrometer with a 5-mm triple resonance probe (Bilerica, Mass., U.S.A.). Other details have been described in our previous reports. The absolute intensities of ^13C═O signals were measured by reference to an internal standard. […] Therefore, the signal intensity from direct incorporation of [1-^13C]octanoate was obtained by subtracting the background signal from control.
Methylation of TG and GLC analysis of fatty acyl composition. The lipid components of cell extracts were separated by TLC (hexane/ethyl ether/acetic acid, 70:30:1). Methylation was performed by incubation in BF3-methanol solution (14%, v/v, BF3 in methanol) at 60° C. for 30 min. The fatty acid methyl ester was extracted into a hexane solution. The hexane solution was dried with anhydrous sodium sulphate. To avoid the evaporation of methyl octanoate, the hexane solution was used directly for GLC study without further condensation. GLC analysis was performed on a Shimuzu 14A gas chromatograph with a Supelco SP™-2380 capillary column with an initial oven temperature of 150° C., final temperature of 240° C., heating rate of 4° C./min, injector temperature of 220° C. and detector temperature of 240° C. Carrier gas (He) was at 50 kPa, make-up carrier gas (He) at 100 kPa, hydrogen gas at 55 kPa and compressed air at 50 kPa. The sample was injected in 1-1.5 μl with splitting rate of 1:25.

3T3-L1 adipocytes [2] = test: 13C-NMR incorporation of [1-13C]FFA into cellular TG; assay type: cell-based
Procedure: Incubation with [1-^13C]FFA. […] At termination, cells were washed three times with an ice-cold solution (pH 7.4) containing sucrose (250 mM), Tris (10 mM) and 2-mercaptoethanol (1 mM), scraped into the above solution containing additional EDTA (0.2 mM) and homogenized. Aliquots of the homogenate were stored at −80° C. for DNA and TG analysis. Aliquots for glycerol-3-phosphate dehydrogenase (G3PD) analysis were centrifuged at 44000 g for 20 min and the supernatants were stored at −80° C. until analysis. The homogenates were then extracted for lipids for NMR studies as described previously.
Quantification of ^13C label incorporation into cellular TG from the NMR peak intensity. The ^13C-NMR spectra were obtained at 125 MHz on a Bruker DMX-500 spectrometer with a 5-mm triple resonance probe (Bilerica, Mass., U.S.A.). Other details have been described in our previous reports. The absolute intensities of ^13C═O signals were measured by reference to an internal standard. […] For cells incubated with [1-^13C]octanoate, the signals from direct incorporation of [1-^13C]octanoate were less intense than the C═O signals from unlabelled TG (FIG. 1B; signals from unlabelled saturated acyl chains overlapped those of esterified [1-^13C]octanoate, but were generally 30-40% of their unsaturated counterparts in control cultures). Therefore, the signal intensity from direct incorporation of [1-^13C]octanoate was obtained by subtracting the background signal from control. This may not be completely accurate when octanoate incorporation is very limited.

3T3-L1 cells = test: Fatty acid induced differentiation (cellular TG content, G3PD activity), no MDI; assay type: cell-based; conditions: for G3PD / TG: basal medium with insulin 2.5 μg/ml, no MDI, means ± S.E.M., n=3; for Cell loss after extended fatty acid incubation: microscopy, corroborated by DNA analysis; for Time after incubation at which lipid droplets began to appear: undifferentiated cells, not treated with MDI
Procedure: Fatty acid induced differentiation. […] The 5:1 molar ratio of FFA/BSA promotes net transfer of FFA from BSA-binding sites to cells. No MDI treatment was applied to these cultures.
Measurement of total cellular DNA, TG and G3PD activity. […] G3PD was measured by following the disappearance of NADH during enzyme-catalysed dihydroxyacetone phosphate reduction under zero-order conditions.

3T3L1 fat cells = test: TG storage and plasma membrane phospholipid fatty acid composition, oleate/linoleate with octanoate; assay type: cell-based
Procedure: This reduced the cellular TG storage from 41.5 to 27.0 μg/μgDNA. The fatty acid composition in the plasma membrane phospholipids (FIG. 15) was less drastically affected by exogenous fatty acids than that in the TG fraction (FIG. 14).

[3] = 6 h intravenous infusion of octanoic acid, cited from earlier work
[4] = After 96 h incubation with DMEM (1% BSA)
[5] = After 96 h incubation with DMEM (1% BSA), n=3
[6] = Before 96 h incubation with DMEM (1% BSA)
[7] = Before 96 h incubation with DMEM (1% BSA), n=3
[8] = after 96-h incubation with DMEM, n=3
[9] = replacement of 20% oleate by octanoate

SMILES: CCCCCCCC(=O)O [Octanoate, octanoate]
- Actual amount of CO2 produced from octanoate relative to exogenous oleate (3T3-L1 adipocytes [1]; 8 vs 18 CO2 per acyl chain): about 3 fold
- Exogenous fatty acid converted into CO2 (3T3-L1 adipocytes [1]): 8.4 ± 1.2 nmol/h per μg of DNA
- Exogenous fatty acid converted into TG (3T3-L1 adipocytes [1]): 0.9 ± 0.1 nmol/h per μg of DNA
- Absolute amount of octanoate remaining in TG, of original amount (3T3-L1 fat cells; 96 h, total TG content doubled): about 20%
- 14:0 acyl chains in cellular TG (3T3-L1 fat cells; [4]): 3.88 ± 0.21%
- 14:1 acyl chains in cellular TG (3T3-L1 fat cells; [4]): 5.78 ± 0.11%
- 15:0 acyl chains in cellular TG (3T3-L1 fat cells; [4]): 1.63 ± 0.17%
- 15:1 acyl chains in cellular TG (3T3-L1 fat cells; [4]): 1.41 ± 0.09%
- 16:0 acyl chains in cellular TG (3T3-L1 fat cells; [4]): 24.45 ± 0.03%
- 16:1 acyl chains in cellular TG (3T3-L1 fat cells; [4]): 47.64 ± 0.34%
- 17:0 acyl chains in cellular TG (3T3-L1 fat cells; [4]): 0.85 ± 0.096%
- 17:1 acyl chains in cellular TG (3T3-L1 fat cells; [4]): 4.73 ± 0.12%
- 18:0 acyl chains in cellular TG (3T3-L1 fat cells; [4]): 0.51 ± 0.16%
- 18:1 n9 acyl chains in cellular TG (3T3-L1 fat cells; [4]): 6.2 ± 0.29%
- 18:1 n11 acyl chains in cellular TG (3T3-L1 fat cells; [4]): 1.95 ± 0.13%
- 8:0 acyl chains in cellular TG (3T3-L1 fat cells; [5]): 0.99 ± 0.05%
- 14:0 acyl chains in cellular TG (3T3-L1 fat cells; [6]): 3.74 ± 0.04%
- 14:1 acyl chains in cellular TG (3T3-L1 fat cells; [6]): 5.56 ± 0.29%
- 15:0 acyl chains in cellular TG (3T3-L1 fat cells; [6]): 1.43 ± 0.14%
- 15:1 acyl chains in cellular TG (3T3-L1 fat cells; [6]): 1.4 ± 0.14%
- 16:0 acyl chains in cellular TG (3T3-L1 fat cells; [6]): 24.62 ± 0.35%
- 16:1 acyl chains in cellular TG (3T3-L1 fat cells; [6]): 38.61 ± 0.2%
- 17:0 acyl chains in cellular TG (3T3-L1 fat cells; [6]): 0.9 ± 0.03%
- 17:1 acyl chains in cellular TG (3T3-L1 fat cells; [6]): 3.89 ± 0.1%
- 18:0 acyl chains in cellular TG (3T3-L1 fat cells; [6]): 0.49 ± 0.02%
- 18:1 n9 acyl chains in cellular TG (3T3-L1 fat cells; [6]): 6.69 ± 0.09%
- 18:1 n11 acyl chains in cellular TG (3T3-L1 fat cells; [6]): 2.34 ± 0.05%
- 8:0 acyl chains in cellular TG (3T3-L1 fat cells; [7]): 10.33 ± 0.3%
- [1-13C]fatty acid remaining esterified in TG (3T3-L1 fat cells; [8]): About 21±1.2%
- Proportion of octanoate in total stored fatty acids (3T3-L1 fat cells; [8]): about 1±0.1%
- Octanoate incorporation, share of total acyl composition (3T3-L1 fat cells; before incubation with DMEM, n=3): 10±0.9%
- Peak intensity ratio TG(1,3)/TG(2) (3T3-L1 adipocytes [2]; 2.0 = random access to the three glycerol carbons): higher than 2.0
- Octanoate share of total acyl chains stored, molar scale (3T3-L1 adipocytes [2]; converted to a molar scale): 20%
- Amount partitioned into de novo synthesis of LCFA (3T3-L1 adipocytes [2]; detected by 13C-NMR): less than 16%
- Saturated octanoate incorporation, share of total fatty acids stored (3T3-L1 adipocytes [2]; fat cells): about 10%
- Time at which accumulation into TG reached a plateau (3T3-L1 adipocytes [2]; within a 24-h period): 7 h
- G3PD (3T3-L1 cells; Day 6): 0.09 ± 0.01 nmol/min per μg of DNA
- TG (3T3-L1 cells; Day 6): 0.1 ± 0.02 μg/μg of DNA
- G3PD (3T3-L1 cells; Day 9): 0.2 ± 0.01 nmol/min per μg of DNA
- TG (3T3-L1 cells; Day 9): 0.6 ± 0.04 μg/μg of DNA
- Cell loss after extended fatty acid incubation (3T3-L1 cells): less significant
- Time after incubation at which lipid droplets began to appear (3T3-L1 cells): 6 days
- Cellular TG storage (3T3L1 fat cells; oleate/linoleate, without or with 20% (wt %) of oleate replaced by octanoate): 27.0 μg/μgDNA
- Decrease in MUFA in plasma membrane phospholipids (3T3L1 fat cells; [9]): ~15%
- Increase in PUFA in plasma membrane phospholipids (3T3L1 fat cells; [9]): ~20%
- Increase in SFA in plasma membrane phospholipids (3T3L1 fat cells; [9]): ~10%
- Octanoate recovered as CO2 ([3]; fasted rats): ≤ 90%
- Octanoate recovered as CO2 ([3]; fed rats): up to 82%

SMILES: CCCCCCCC/C=C\CCCCCCCC(=O)O [Oleate, oleate, reference compound]
- Exogenous fatty acid converted into CO2 (3T3-L1 adipocytes [1]): 0.7 ± 0.1 nmol/h per μg of DNA
- Exogenous fatty acid converted into TG (3T3-L1 adipocytes [1]): 7.6 ± 0.8 nmol/h per μg of DNA
- 14:0 acyl chains in cellular TG (3T3-L1 fat cells; [4]): 3.28 ± 0.02%
- 14:1 acyl chains in cellular TG (3T3-L1 fat cells; [4]): 5.48 ± 0.03%
- 15:0 acyl chains in cellular TG (3T3-L1 fat cells; [4]): 1.36 ± 0.02%
- 15:1 acyl chains in cellular TG (3T3-L1 fat cells; [4]): 1.24 ± 0.09%
- 16:0 acyl chains in cellular TG (3T3-L1 fat cells; [4]): 23.65 ± 0.03%
- 16:1 acyl chains in cellular TG (3T3-L1 fat cells; [4]): 38.65 ± 0.2%
- 17:0 acyl chains in cellular TG (3T3-L1 fat cells; [4]): 0.75 ± 0.03%
- 17:1 acyl chains in cellular TG (3T3-L1 fat cells; [4]): 3.98 ± 0.07%
- 18:0 acyl chains in cellular TG (3T3-L1 fat cells; [4]): 0.41 ± 0.02%
- 18:1 n9 acyl chains in cellular TG (3T3-L1 fat cells; [4]): 19.71 ± 0.02%
- 18:1 n11 acyl chains in cellular TG (3T3-L1 fat cells; [4]): 1.51 ± 0.12%
- 8:0 acyl chains in cellular TG (3T3-L1 fat cells; [5]): 0%
- 14:0 acyl chains in cellular TG (3T3-L1 fat cells; [6]): 2.84 ± 0.09%
- 14:1 acyl chains in cellular TG (3T3-L1 fat cells; [6]): 4.75 ± 0.08%
- 15:1 acyl chains in cellular TG (3T3-L1 fat cells; [6]): 0.81 ± 0.01%
- 16:0 acyl chains in cellular TG (3T3-L1 fat cells; [6]): 20.01 ± 0.36%
- 16:1 acyl chains in cellular TG (3T3-L1 fat cells; [6]): 27.34 ± 0.29%
- 17:0 acyl chains in cellular TG (3T3-L1 fat cells; [6]): 0.82 ± 0.03%
- 17:1 acyl chains in cellular TG (3T3-L1 fat cells; [6]): 3.31 ± 0.26%
- 18:0 acyl chains in cellular TG (3T3-L1 fat cells; [6]): 0.38 ± 0.04%
- 18:1 n9 acyl chains in cellular TG (3T3-L1 fat cells; [6]): 36.4 ± 0.4%
- 18:1 n11 acyl chains in cellular TG (3T3-L1 fat cells; [6]): 1.35 ± 0.07%
- 8:0 acyl chains in cellular TG (3T3-L1 fat cells; [7]): 0%
- Decline of proportion of oleate in cellular TG (3T3-L1 fat cells; after 96-h incubation with DMEM, GLC): 50%
- [1-13C]fatty acid remaining esterified in TG (3T3-L1 fat cells; [8]): over 99±3.3%
- G3PD (3T3-L1 cells; Day 6): 0.45 ± 0.02 nmol/min per μg of DNA
- TG (3T3-L1 cells; Day 6): 1.7 ± 0.2 μg/μg of DNA
- G3PD (3T3-L1 cells; Day 9): 1.7 ± 0.1 nmol/min per μg of DNA
- TG (3T3-L1 cells; Day 9): 5.1 ± 0.3 μg/μg of DNA
- Cell loss after extended fatty acid incubation (3T3-L1 cells): ~20%
- Oleate share of accumulated TG (3T3-L1 cells; oleate-treated cells): > 80%
- Time after incubation at which lipid droplets began to appear (3T3-L1 cells): 3 days
